Reference: the OligoGym collection
After the bases stand the sugars from the 5' end (letter, count) and the backbone: PS all phosphorothioate, else s phosphorothioate and o phosphodiester by linkage. Methylation of C is not given here. e = 2'-O-(2-methoxyethyl) (MOE); k = constrained ethyl (cEt); d = 2'-deoxy (DNA); m = 2'-O-methyl

Target: HSD17B13
Conditions: ASO, HepaRG

Row | Sequence | target mRNA inhibition (1 µM) [%] | further results
1 | AGTTATTAGAAGTCAG (sugars kkdddddddddkekek, PS) | 42 | 
2 | GATTTTTGGTGAACCC (sugars k3 d10 k3, PS) | 30 | 
3 | ATTAACATTCGGCTAG (sugars k3 d10 k3, PS) | 17 | 
4 | AATGTATCTTATAAGA (sugars k3 d10 k3, PS) | 10 | 
5 | GGTTGAGATAAAGCTG (sugars k3 d10 k3, PS) | 76 | target mRNA inhibition (0.02 µM): 0%; target mRNA inhibition (0.078 µM): 0%; target mRNA inhibition (0.313 µM): 37%; target mRNA inhibition (1.25 µM): 65%; target mRNA inhibition (5 µM): 86%
6 | AGCTUTTGTCCACCTT (sugars k3 d1 m1 d8 k3, PS) | 72 | 
7 | TGTATAGCTGCATTTC (sugars k3 d10 k3, PS) | 37 | 
8 | TGACTAAGGAGCTAGA (sugars k3 d10 k3, PS) | 31 | 
9 | CATAAGAGATGAGTAG (sugars k3 d10 k3, PS) | 44 | 
10 | TCTTGACAATGGTTGA (sugars k3 d9 k3 e1, PS) | 61 | 
11 | ATATACGATGGAACAA (sugars k3 d10 k3, PS) | 0 | 
12 | GAGGAGTTAGGGAGCC (sugars k3 d10 k3, PS) | 36 | 
13 | TTATAACTACAAGAGG (sugars kkdddddddddkekek, PS) | 55 | 
14 | TAGCCAGTACAGTTCC (sugars k3 d9 k3 e1, PS) | 58 | 
15 | CATACGCATGCGCAGT (sugars k3 d10 k3, PS) | 60 | 
16 | GCTATAACTGGAAGGA (sugars k3 d10 k3, PS) | 58 | 
17 | GATGCTCCATAATAAT (sugars kkdddddddddkekek, PS) | 17 | 
18 | CTCTAGGAGATATAAC (sugars k3 d10 k3, PS) | 49 | 
19 | AAGCTTATCGAGTTTA (sugars k3 d10 k3, PS) | 26 | 
20 | ATTGTAATCTTGAGGC (sugars k3 d10 k3, PS) | 39 | 
21 | AGTCCATGCAAAAGCA (sugars kkdddddddddkekek, PS) | 52 | 
22 | ACGACTCCAAGTAGGA (sugars k3 d10 k3, PS) | 24 | 
23 | GTGGCATGGCTACAGA (sugars k3 d10 k3, PS) | 56 | 
24 | TTAGAATACGCTGAGA (sugars k3 d10 k3, PS) | 48 | 
25 | TATTATGTGATTGAGT (sugars kkdddddddddkekek, PS) | 65 | 
26 | GTAATGGTAAACTGTA (sugars k3 d10 k3, PS) | 70 | 

Row | Sequence | target mRNA inhibition (1 µM) [%] | further results
27 | ATCAACCTGCACACCA (sugars k3 d10 k3, PS) | 63 | 
28 | CTTAGCTGTGCACTCA (sugars k3 d10 k3, PS) | 60 | 
29 | ATGGATCTAGAACACT (sugars k3 d10 k3, PS) | 43 | 
30 | ATCAAGACATTCTAGC (sugars k3 d10 k3, PS) | 61 | 
31 | TGTGATTGAGTTCTCC (sugars k3 d1 m1 d8 k3, PS) | 34 | 
32 | TTGCAATAGTACTATA (sugars k3 d10 k3, PS) | 3 | 
33 | ACCCTTAACAAACCTC (sugars k3 d10 k3, PS) | 36 | 
34 | TGCAGTTATTAGAAGT (sugars k3 d10 k3, PS) | 46 | 
35 | AGATAAAGCTGCCTGC (sugars k3 d10 k3, PS) | 48 | 
36 | CTCTGGGACCAAGGAT (sugars kkdddddddddkekek, PS) | 39 | 
37 | TTAGGGAGGTAGCTTT (sugars k3 d10 k3, PS) | 54 | 
38 | CTTGAATGAGTGGTCT (sugars k3 d10 k3, PS) | 64 | target mRNA inhibition (0.02 µM): 10%; target mRNA inhibition (0.078 µM): 16%; target mRNA inhibition (0.313 µM): 46%; target mRNA inhibition (1.25 µM): 69%; target mRNA inhibition (5 µM): 88%
39 | GACAATGACATAGACG (sugars k3 d10 k3, PS) | 0 | 
40 | AGAGGATAGTCCATGC (sugars k3 d9 k3 e1, PS) | 78 | target mRNA inhibition (0.02 µM): 0%; target mRNA inhibition (0.078 µM): 3%; target mRNA inhibition (0.313 µM): 40%; target mRNA inhibition (1.25 µM): 50%; target mRNA inhibition (5 µM): 44%
41 | AGTGAACATACATTGT (sugars k3 d10 k3, PS) | 48 | 
42 | ATGGTAAGGAGTAGTG (sugars k3 d10 k3, PS) | 17 | 
43 | CCTAAATTCAAAGACC (sugars k3 d10 k3, PS) | 64 | 
44 | GTATAGTTATCTTCTC (sugars kkdddddddddkekek, PS) | 49 | 
45 | TAAGAGATGAGTAGGC (sugars k3 d10 k3, PS) | 46 | 
46 | TGACAATGGTTGATAG (sugars k3 d9 k3 e1, PS) | 38 | 
47 | AGAGGATAGTGAACAT (sugars k3 d10 k3, PS) | 59 | 
48 | ATAATGGGCAGAGCTG (sugars k3 d10 k3, PS) | 53 | 
49 | AATAACTGTTCTCCCC (sugars k3 d10 k3, PS) | 20 | 
50 | CTAATGAATCATGATT (sugars k3 d10 k3, PS) | 20 | 
51 | ACTGCTGCTAGTGCCA (sugars k3 d10 k3, PS) | 47 | 
52 | CCTCTAAGTTAGCCCC (sugars k3 d9 k3 e1, PS) | 16 | 

Row | Sequence | target mRNA inhibition (1 µM) [%] | further results
53 | GAGGAATGGCTAGGAT (sugars k3 d10 k3, PS) | 47 | 
54 | AGAGGCTAGGGAAATC (sugars k3 d1 m1 d8 k3, PS) | 48 | 
55 | ACCTAATAACTACATG (sugars k3 d10 k3, PS) | 0 | 
56 | CAATACAGGCCATAAT (sugars k3 d10 k3, PS) | 0 | 
57 | CTTGCAGAAATTCACC (sugars k3 d10 k3, PS) | 40 | 
58 | CACCGTTTTGGGCTAA (sugars kkdddddddddkekek, PS) | 42 | 
59 | CCTCCACACCGCGCTT (sugars k3 d10 k3, PS) | 16 | 
60 | AAATAGAGTCGGTCAC (sugars k3 d10 k3, PS) | 59 | 
61 | CTAACTAACCTGACAC (sugars k3 d10 k3, PS) | 23 | 
62 | CTTGATTAAGGCAAAG (sugars k3 d10 k3, PS) | 38 | 
63 | CATCTCTGGGACCAAG (sugars k3 d9 k3 e1, PS) | 42 | 
64 | GAAATTCACCTTGACT (sugars k3 d10 k3, PS) | 41 | 
65 | CTAGTGCCAAACCAAT (sugars k3 d10 k3, PS) | 49 | 
66 | ATAGUCCATGCAAAAG (sugars k3 d1 m1 d8 k3, PS) | 57 | 
67 | AGCTTTTGTCCACCTT (sugars kkdddddddddkekek, PS) | 62 | 
68 | GTAACGGTGATCAAAT (sugars k3 d1 m1 d8 k3, PS) | 21 | 
69 | TACTCTAGGAGATATA (sugars k3 d10 k3, PS) | 33 | 
70 | GATGAGGTAAGGAATC (sugars k3 d10 k3, PS) | 0 | 
71 | TACTUGAACAGTCTTA (sugars k3 d1 m1 d8 k3, PS) | 38 | 
72 | CGACTTCATCTGTCTC (sugars k3 d10 k3, PS) | 19 | 
73 | ACGGTGATCAAATGTA (sugars k3 d9 k3 e1, PS) | 41 | 
74 | GACAGAGCAATTTACT (sugars k3 d10 k3, PS) | 55 | 
75 | TGTGTTCTTGTTGATA (sugars k3 d9 k3 e1, PS) | 65 | 
76 | ATGTCAGACCTCTGTG (sugars k3 d10 k3, PS) | 19 | 
77 | TGTCCAGGTTGAGATA (sugars k3 d1 m1 d8 k3, PS) | 41 | 
78 | TCCCCTCAAATAGCCT (sugars k3 d10 k3, PS) | 60 | 

Row | Sequence | target mRNA inhibition (1 µM) [%] | further results
79 | AGTAATGAGAACAATC (sugars k3 d10 k3, PS) | 45 | 
80 | GAGGCTAGGGAAATCT (sugars k3 d10 k3, PS) | 56 | 
81 | TTGATCTCTTAGCTGT (sugars k3 d9 k3 e1, PS) | 64 | 
82 | GAGAUAAAGCTGCCTG (sugars k3 d1 m1 d8 k3, PS) | 39 | 
83 | TTGCAGCATTGATTCG (sugars k3 d10 k3, PS) | 59 | 
84 | CATCTGTCTCCAATAC (sugars k3 d10 k3, PS) | 32 | 
85 | ATGAGGTAAGGAATCC (sugars k3 d10 k3, PS) | 0 | 
86 | CTGTGTTAGCTTTAAT (sugars k3 d1 m1 d8 k3, PS) | 41 | 
87 | ATTGATTCGAAACTAT (sugars k3 d10 k3, PS) | 22 | 
88 | CAGGAAGACAGGTAAT (sugars k3 d10 k3, PS) | 60 | 
89 | GAAGTGTAATGCTCCC (sugars k3 d10 k3, PS) | 71 | 
90 | GATCATTCCTGCTAGT (sugars k3 d10 k3, PS) | 35 | 
91 | CTGGGATAGTGGAGGA (sugars k3 d10 k3, PS) | 21 | 
92 | TAGTCTTGATGTAGTG (sugars k3 d9 k3 e1, PS) | 61 | 
93 | ATGGTAAACTGTATGC (sugars k3 d10 k3, PS) | 78 | target mRNA inhibition (0.02 µM): 19%; target mRNA inhibition (0.078 µM): 23%; target mRNA inhibition (0.313 µM): 53%; target mRNA inhibition (1.25 µM): 75%; target mRNA inhibition (5 µM): 89%
94 | TGTTTTAGTATTTGGG (sugars k3 d10 k3, PS) | 48 | 
95 | GAACAATATGGGATGA (sugars k3 d1 m1 d8 k3, PS) | 50 | 
96 | CGTTUGACTGCTGCTA (sugars k3 d1 m1 d8 k3, PS) | 54 | 
97 | TGATTTAGTTGGTAGC (sugars k3 d10 k3, PS) | 79 | target mRNA inhibition (0.02 µM): 7%; target mRNA inhibition (0.078 µM): 43%; target mRNA inhibition (0.313 µM): 73%; target mRNA inhibition (1.25 µM): 84%; target mRNA inhibition (5 µM): 94%
98 | GCTAGTAATTGCATCT (sugars k3 d10 k3, PS) | 47 | 
99 | ACTTCACCAACGACTC (sugars k3 d10 k3, PS) | 15 | 
100 | CTAGTGCCAAACCAAT (sugars k3 d9 k3 e1, PS) | 61 | 
101 | TACTTACCAATATGGG (sugars k3 d10 k3, PS) | 13 | 
